# Source: publication PMC8855934 (Journal of medicinal chemistry, 2021)
# Where a chain is given by its changes, count along the chain named.
# Tests used:
# [1] = Oral exposures in mice; type: in vivo; details: oral gavage, non-tumor-bearing male mice (Table S1)
# [2] = target: T1, AR protein (Homo sapiens, UniProt P10275); assay: AR degradation in VCaP cell line; type: cell-based; details: for reduction of AR protein level (degradation kinetics) / Dmax: VCaP; for reduction of AR protein level (degradation kinetics): 1 h; for Dmax: read-out: Dmax, AR degradation in VCaP cell line, VCaP cell line, 24 h treatment, Western blotting
# T1 sequence (P10275 1-920): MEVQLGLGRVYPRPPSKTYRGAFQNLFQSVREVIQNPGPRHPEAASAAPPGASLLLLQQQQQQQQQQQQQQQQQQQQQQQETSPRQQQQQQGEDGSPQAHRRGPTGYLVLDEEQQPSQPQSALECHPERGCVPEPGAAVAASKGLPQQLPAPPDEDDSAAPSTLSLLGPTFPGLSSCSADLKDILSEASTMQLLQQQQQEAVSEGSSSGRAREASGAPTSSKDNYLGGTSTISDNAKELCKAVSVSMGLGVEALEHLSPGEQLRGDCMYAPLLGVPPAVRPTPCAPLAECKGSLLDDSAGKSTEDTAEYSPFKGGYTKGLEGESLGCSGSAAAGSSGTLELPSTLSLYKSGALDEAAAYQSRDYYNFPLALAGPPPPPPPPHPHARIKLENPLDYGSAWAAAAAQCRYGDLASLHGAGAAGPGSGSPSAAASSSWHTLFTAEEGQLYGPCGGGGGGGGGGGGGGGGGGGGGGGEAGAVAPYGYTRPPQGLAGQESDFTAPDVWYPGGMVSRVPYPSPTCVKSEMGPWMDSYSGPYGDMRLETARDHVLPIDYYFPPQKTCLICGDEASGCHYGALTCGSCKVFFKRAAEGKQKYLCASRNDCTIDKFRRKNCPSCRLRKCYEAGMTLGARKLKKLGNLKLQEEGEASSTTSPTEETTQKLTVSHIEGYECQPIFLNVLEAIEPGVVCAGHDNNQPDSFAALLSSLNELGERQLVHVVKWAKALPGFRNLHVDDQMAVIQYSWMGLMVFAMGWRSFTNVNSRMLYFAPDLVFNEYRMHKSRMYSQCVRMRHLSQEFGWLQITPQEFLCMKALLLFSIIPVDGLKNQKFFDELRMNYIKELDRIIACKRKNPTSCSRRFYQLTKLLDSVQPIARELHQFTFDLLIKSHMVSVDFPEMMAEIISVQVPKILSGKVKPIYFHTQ
# [3] = target: T2, AR T878A mutant protein (Homo sapiens, UniProt P10275, T878A); details: LNCaP, 1 h
# T2 sequence (P10275 1-920 T878A): T1 sequence (P10275 1-920) with T878A
# [4] = Pharmacokinetics in mice; type: in vivo; details: male, mouse, iv, 1 mg/kg
# [5] = target: T1, AR protein; details: single oral administration 20 mg/kg, 6 and 24 h time-points, Western blotting
smiles,measurement,setting,value
"N#Cc1ccc(O[C@H]2CC[C@H](NC(=O)c3ccc(NCCCNc4ccc5c(c4)C(=O)N(C4CCC(=O)NC4=O)C5=O)cc3)CC2)cc1Cl (stereo partly drawn) [Compound 11, N-((1R,4R)-4-(3-Chloro-4-cyanophenoxy)cyclohexyl)-4-((3-((2-(2,6-dioxopiperidin-3-yl)-1,3-dioxoisoindolin-5-yl)amino)propyl)-amino)benzamide]",oral exposures in mice,[1],very low
"N#Cc1ccc(O[C@H]2CC[C@H](NC(=O)c3ccc(NCCCCCNc4ccc5c(c4)C(=O)N(C4CCC(=O)NC4=O)C5=O)cc3)CC2)cc1Cl (stereo partly drawn) [Compound 13, N-((1R,4R)-4-(3-Chloro-4-cyanophenoxy)cyclohexyl)-4-((5-((2-(2,6-dioxopiperidin-3-yl)-1,3-dioxoisoindolin-5-yl)amino)pentyl)-amino)benzamide]",oral exposures in mice,[1],very low
"N#Cc1ccc(O[C@H]2CC[C@H](NC(=O)c3ccc(N4CCC(N5CCN(c6ccc7c(c6)C(=O)N(C6CCC(=O)NC6=O)C7=O)CC5)CC4)cc3)CC2)cc1Cl (stereo partly drawn) [Compound 26, N-(1R,4R)-4-((3-Chloro-4-cyanophenoxy)cyclohexyl)-4-(4-(4-(2-(2,6-dioxopiperidin-3-yl)-1,3-dioxoisoindolin-5-yl)piperazin-1-yl)-piperidin-1-yl)benzamide]",reduction of AR protein level (degradation kinetics),[2],effectively reduce
same,reduction of AR protein level (degradation kinetics),[3],effectively reduce
same,clearance,[4]; plasma,6.67 mL/min/kg
"N#Cc1ccc(O[C@H]2CC[C@H](NC(=O)c3ccc(N4CCN(CC5CN(c6ccc7c(c6)C(=O)N(C6CCC(=O)NC6=O)C7=O)C5)CC4)cc3)CC2)cc1Cl (stereo partly drawn) [Compound 27, N-(1R,4R)-4-((3-Chloro-4-cyanophenoxy)cyclohexyl)-4-(4-((l-(2-(2,6-dioxopiperidin-3-yl)-1,3-dioxoisoindolin-5-yl)azetidin-3-yl)-methyl)piperazin-1-yl)benzamide]",reduction of AR protein level (degradation kinetics),[2],effectively reduce
same,reduction of AR protein level (degradation kinetics),[3],effectively reduce
"N#Cc1ccc(O[C@H]2CCC[C@H](NC(=O)c3ccc(N4CCC(N5CCN(c6ccc7c(c6)C(=O)N(C6CCC(=O)NC6=O)C7=O)CC5)CC4)cc3)CCC2)cc1Cl (stereo partly drawn) [Compound 31, N-(1R,5R)-5-((3-Chloro-4-cyanophenoxy)cyclooctyl)-4-(4-(4-(2-(2,6-dioxopiperidin-3-yl)-1,3-dioxoisoindolin-5-yl)piperazin-1-yl)-piperidin-1-yl)benzamide]","Dmax, AR degradation in VCaP cell line","[2]; VCaP cell line, 24 h treatment, Western blotting",54%
"N#Cc1ccc(OC2CCN(C(=O)c3ccc(N4CCC(N5CCN(c6ccc7c(c6)C(=O)N(C6CCC(=O)NC6=O)C7=O)CC5)CC4)cc3)CC2)cc1Cl (stereo not drawn) [Compound 32, 2-Chloro-4-((1-(4-(4-(4-(2-(2,6-dioxopiperidin-3-yl)-1,3-dioxoisoindolin-5-yl)piperazin-1-yl)piperidin-1-yl)benzoyl)piperidin-4-yl)-oxy)benzonitrile]",effect in reducing AR protein (in words),[2]; VCaP cell line,little or no effect
N#Cc1ccc(O[C@@H]2CCCN(C(=O)c3ccc(N4CCC(N5CCN(c6ccc7c(c6)C(=O)N(C6CCC(=O)NC6=O)C7=O)CC5)CC4)cc3)CC2)cc1Cl (stereo partly drawn) [Compound 33],effect in reducing AR protein (in words),[2]; VCaP cell line,little or no effect
CN(c1ccc(C#N)c(Cl)c1)[C@H]1CC[C@H](NC(=O)c2ccc(N3CCC(N4CCN(c5ccc6c(c5)C(=O)N(C5CCC(=O)NC5=O)C6=O)CC4)CC3)cc2)CC1 (stereo partly drawn) [Compound 35],clearance,[4]; plasma,5 mL/min/kg
"CN(c1ccc(C#N)c(Cl)c1)[C@H]1CC[C@H](NC(=O)c2ccc(N3CCC(CN4CCN(c5ccc6c(c5)C(=O)N(C5CCC(=O)NC5=O)C6=O)CC4)CC3)cc2)CC1 (stereo partly drawn) [Compound 40, N-(1R,4R)-4-(((3-Chloro-4-cyanophenyl)(methyl)amino)-cyclohexyl)-4-(4-((4-(2-(2,6-dioxopiperidin-3-yl)-1,3-dioxoisoindolin-5-yl)piperazin-1-yl)methyl)piperidin-1-yl)benzamide]",reduction of AR protein level (degradation kinetics),[2],effectively reduce
same,reduction of AR protein level (degradation kinetics),[3],effectively reduce
"CN(c1ccc(C#N)c(Cl)c1)[C@H]1CC[C@H](NC(=O)c2ccc(N3CCN(C4CCN(c5ccc6c(c5)C(=O)N(C5CCC(=O)NC5=O)C6=O)CC4)CC3)cc2)CC1 (stereo partly drawn) [Compound 41, N-(1R,4R)-4-(((3-Chloro-4-cyanophenyl)(methyl)amino)-cyclohexyl)-4-(4-(1-(2-(2,6-dioxopiperidin-3-yl)-1,3-dioxoisoindolin-5-yl)piperidin-4-yl)piperazin-1-yl)benzamide]",reduction of AR protein level (degradation kinetics),[2],effectively reduce
same,reduction of AR protein level (degradation kinetics),[3],effectively reduce
same,reduction of AR protein level in VCaP tumor tissue,[5],effective
"CN(c1ccc(C#N)c(Cl)c1)[C@H]1CC[C@H](NC(=O)c2ccc(N3CC(CN4CCN(c5ccc6c(c5)C(=O)N(C5CCC(=O)NC5=O)C6=O)CC4)C3)cc2)CC1 (stereo partly drawn) [Compound 44, N-(1R,4R)-4-(((3-Chloro-4-cyanophenyl)(methyl)amino)-cyclohexyl)-4-(3-((4-(2-(2,6-dioxopiperidin-3-yl)-1,3-dioxoisoindolin-5-yl)piperazin-1-yl)methyl)azetidin-1-yl)benzamide]",reduction of AR protein level (degradation kinetics),[2],effectively reduce
same,reduction of AR protein level (degradation kinetics),[3],effectively reduce
"CN(c1ccc(C#N)c(Cl)c1)[C@H]1CC[C@H](NC(=O)c2ccc(N3CC(N4CCN(c5ccc6c(c5)C(=O)N(C5CCC(=O)NC5=O)C6=O)CC4)C3)cc2)CC1 (stereo partly drawn) [Compound 45, N-(1R,4R)-4-(((3-Chloro-4-cyanophenyl)(methyl)amino)-cyclohexyl)-4-(3-(4-(2-(2,6-dioxopiperidin-3-yl)-1,3-dioxoisoindolin-5-yl)piperazin-1-yl)azetidin-1-yl)benzamide]",reduction of AR protein level (degradation kinetics),[2],effectively reduce
same,reduction of AR protein level (degradation kinetics),[3],effectively reduce
same,Vd,[4]; in vivo,1.8 to 2.1 L/kg
same,clearance,[4]; in vivo,3.33 to 5 mL/min/kg
same,half-life,[4]; in vivo,330 to 450 min
same,clearance,[4]; plasma,3.33 mL/min/kg
same,reduction of AR protein level in VCaP tumor tissue,[5],effective
"CC(O)(CS(=O)(=O)c1ccc(N2CCN(C3CCN(c4ccc5c(c4)C(=O)N(C4CCC(=O)NC4=O)C5=O)CC3)CC2)cc1)C(=O)Nc1ccc(C#N)c(C(F)(F)F)c1 (stereo not drawn) [Compound 46, N-(4-Cyano-3-(trifluoromethyl)phenyl)-3-((4-(4-(1-(2-(2,6-dioxopiperidin-3-yl)-1,3-dioxoisoindolin-5-yl)piperidin-4-yl)piperazin-1-yl)phenyl)sulfonyl)-2-hydroxy-2-methylpropanamide]",Dmax,[2],< 32%
"N#Cc1ncc(N2C(=O)C3(CCC3)N(c3ccc(C(=O)N4CCN(C5CCN(c6ccc7c(c6)C(=O)N(C6CCC(=O)NC6=O)C7=O)CC5)CC4)c(F)c3)C2=S)cc1C(F)(F)F (stereo not drawn) [Compound 48, 5-(5-(4-(4-(1-(2-(2,6-Dioxopiperidin-3-yl)-1,3-dioxoisoindolin-5-yl)piperidin-4-yl)piperazine-1-carbonyl)-3-fluorophenyl)-8-oxo-6-thioxo-5,7-diazaspiro[3.4]octan-7-yl)-3-(trifluoromethyl)-picolinonitrile]",Dmax,[2],< 32%
